Columns and labels:
Zebrafish larvae = experiment: Absorption of fluorescently labelled emetine, free and in pH-type liposomes, by Zebrafish larvae; assay type: in vivo
Experimental: To compare the uptake of emetine and pH-type liposomes with emetine, Zebrafish larvae were exposed to fluorescently labelled free emetine and fluorescently labelled emetine encapsulated in pH-type liposomes (synthesis identical to that of 14pHEM) for 4 and 48 h in a concentration range from 0.73 μM to 14.7 μM for emetine and 4.41 μM to 8.82 μM for pH-type liposomes with fluorescent emetine per emetine. Photographs of fish from each group were taken at the final time point to monitor the intensity of fluorescence from absorbed emetine. A Discovery V8 stereoscopic optical microscope and Zeiss equipment were used for the observations.

[1] = Acute toxicity test on Zebrafish larvae, emetine and 14 pH EM liposomes, 24 and 48 h; parameters: species or system Zebrafish (Danio rerio); settings: in vivo, 48 h exposure, 2 dpf larvae, calculated for emetine, read-out: half maximal lethal concentration (LC50)
Experimental: In order to compare the toxicity of emetine and 14 pH EM liposomes with emetine, an acute toxicity test was conducted on Zebrafish (Danio rerio). The test was designed to determine the acute or lethal toxicity of the formulations on the embryonic stages of the fish. Briefly, Zebrafish 2 dpf larvae were treated with emetine and 14 pH EM liposomes with emetine for 24 and 48 hours at concentrations ranging from 0.73 μM to 125 μM calculated for emetine. […] The water for embryo culture and solution preparation was embryo culture medium (E3 solution: 5 mmol/L NaCl, 0.17 mmol/L KCl, 0.33 mmol/L CaCl2 and 0.33 mmol/L MgSO4, containing no methylene blue, and with a pH value of approximately 7.2). The experiment was carried out in 24-well plates, 5 embryos per well, 10 per group. The plate was covered and kept in an incubator set at 28±0.5° C. with a light/dark period of 12/12 hours. During the exposure period, larvae were tracked every 24 hours and four visual observations, including coagulation of fertilised eggs, lack of somite formation, lack of separation of tail bud from yolk sac and lack of heartbeat, were recorded as indicators of mortality.

[2] = phase I and II clinical trials; cited from earlier work
[3] = Acute toxicity test on Zebrafish larvae, emetine / BEM and staurosporine / BST liposomes, 96 h; assay type: in vivo, Zebrafish (Danio rerio); settings: 96 h incubation, staurosporine free or in BST
Experimental: In order to compare the toxicity of emetine and staurosporine with the same drugs loaded into BpH liposomes, an acute toxicity test was conducted on Zebrafish (Danio rerio). The test was designed to determine the acute or lethal toxicity of the chemicals on the embryonic stages of the fish. Briefly, zebrafish larvae were treated with emetine and […] liposomes or staurospoine and staurosporine with BST liposomes for a period of 96 hours.
The embryo culture fluid and solution preparation was embryo culture medium (E3 solution: 5 mmol/L NaCl, 0.17 mmol/L KCl, 0.33 mmol/L CaCl2 and 0.33 mmol/L MgSO4, containing no methylene blue, and with a pH value of approximately 7.2). The experiment was carried out in 24-well plates, 5 embryos per well, 10 per group. The plate was covered and kept in an incubator set at 28±0.5° C. with a light/dark period of 12/12 hours. During the exposure period, larvae were tracked every 24 h and four visual observations, including coagulation of fertilised eggs, lack of somite formation, lack of separation of tail bud from yolk sac and lack of heartbeat, were recorded as indicators of mortality. At the end of the exposure period (96 hpf), acute toxicity was determined based on a positive result from any of the four recorded visual observations and the LC50 was calculated. Liposomes alone without drug loading were also tested.

SMILES | location of absorbed emetine in larvae (Zebrafish larvae; fluorescence microscopy) | uptake / amount of absorbed emetine (Zebrafish larvae; free 1.47, 3.67, 7.35 μM, in liposomes 4.41 and 8.82 μM) | LC50 at 48 h [1] | therapeutic index [2] | toxicity on increasing the dose [2] | LC50 at 96 h [3]
CC[C@H]1CN2CCc3cc(OC)c(OC)cc3[C@@H]2C[C@@H]1C[C@H]1NCCc2cc(OC)c(OC)cc21 [emetine] | within the yolk of the larvae, especially in the liver and intestine region | increases with dose | 5640 nM | very limited | cardiac toxicity | 
CN[C@@H]1C[C@H]2O[C@@](C)([C@@H]1OC)n1c3ccccc3c3c4c(c5c6ccccc6n2c5c31)C(=O)NC4 [staurosporine] |  |  |  |  |  | 17 nM
